These are literature values, as cited in patent publication US11286226B2, “Polycyclic carbogenic molecules and uses thereof as anti-cancer agents” (Northwestern University, priority 2017, dated 2022).

For data set [1], the system named is Plasmodium falciparum. Particulars: reported value (ref. 60); read-out: IC50 against the malaria parasite Plasmodium falciparum; cited from earlier work.
Data set [2] has as its system normal human cells. Particulars: reported (ref. 60); cited from earlier work.

`[C-]#[N+][C@]1(C)[C@H](C)C[C@@H]2C[C@H](C)[C@H]3CC[C@](C)([N+]#[C-])[C@H]4CC[C@H]1[C@@H]2[C@H]34` [Compound 39, (+)-7,20-diisocyanoadociane]: the IC50 in data set [1] was 4.7 nM. Also, in data set [2], the “activity against normal human cells” value was “inert”.

One may read the IC50 as the concentration that gives 50% inhibition.
